According to ChEMBL document CHEMBL5500335, “Ligand-based design and synthesis of new trityl histamine and trityl cysteamine derivatives as SIRT2 inhibitors for cancer therapy” (Eur J Med Chem, 2024):
Activity calls are given as the source filed them. The calls are words filed in the database; no cut-off is given here.

Assays:
[1] = tested on: Panel NCI-60 (60 carcinoma cell lines); experiment: Antiproliferative activity against human Panel NCI-60 (60 carcinoma cell lines) cells assessed as inhibition of cell growth incubated for 48 hrs by SRB assay; type: functional
[2] = target: T1, NAD-dependent protein deacetylase sirtuin-2 (Homo sapiens, UniProt Q8IXJ6); experiment: Inhibition of recombinant SIRT2 (unknown origin) deacetylase activity using Ac-RHKK(Ac)-MCA as substrate incubated for 60 mins in presence of NAD by fluorogenic assay
T1 sequence (Q8IXJ6 whole entry): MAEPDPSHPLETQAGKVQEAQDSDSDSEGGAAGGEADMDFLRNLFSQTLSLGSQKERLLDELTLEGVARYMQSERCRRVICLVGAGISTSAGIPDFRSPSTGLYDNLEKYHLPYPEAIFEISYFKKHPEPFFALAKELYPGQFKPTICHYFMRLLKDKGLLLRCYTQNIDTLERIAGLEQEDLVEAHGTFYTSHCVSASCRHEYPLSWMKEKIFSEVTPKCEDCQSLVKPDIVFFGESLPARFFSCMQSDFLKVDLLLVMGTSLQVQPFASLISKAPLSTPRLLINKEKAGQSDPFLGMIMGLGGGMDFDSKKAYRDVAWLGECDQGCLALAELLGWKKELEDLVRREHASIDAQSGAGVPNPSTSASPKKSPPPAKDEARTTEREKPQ

[3] = tested on: Panel NCI-60 (60 carcinoma cell lines); experiment: Growth inhibition of human Panel NCI-60 (60 carcinoma cell lines) cells incubated for 48 hrs by SRB assay; type: functional
[4] = tested on: Panel NCI-60 (60 carcinoma cell lines); experiment: Antiproliferative activity against human Panel NCI-60 (60 carcinoma cell lines) cells assessed as decrease in cell count incubated for 48 hrs by SRB assay; type: functional
[5] = Selectivity ratio of IC50 for antiproliferative activity against spontaneous remission leukemia cell line (unknown origin) to IC50 for cytotoxicity against human PBMC cells; type: toxicity, cell-based; details: read-out: Ratio IC50
[6] = tested on: MCF7; experiment: Cell cycle arrest in human MCF7 cells assessed as G0-G1 phase cells incubated for 24 hrs by flow cytometric analysis (reference value: 55.8 %); type: functional
[7] = tested on: MCF7; experiment: Cell cycle arrest in human MCF7 cells assessed as accumulation of S phase cells incubated for 24 hrs by flow cytometric analysis (reference value: 26.6 %); type: functional
[8] = tested on: MCF7; experiment: Cell cycle arrest in human MCF7 cells assessed as accumulation of G2/M phase cells incubated for 24 hrs by flow cytometric analysis (reference value: 18 %); type: functional
[9] = Cytotoxicity against human PBMC cells assessed as cell viability at 10 uM incubated for 2 days by MTT assay relative to control; type: toxicity, cell-based; details: time 2 day, read-out: Activity
[10] = Selectivity ratio of IC50 for antiproliferative activity against human MOLT-4 cells to IC50 for cytotoxicity against human PBMC cells; type: toxicity, cell-based; details: MOLT-4 cells and PBMC cells, read-out: Ratio IC50
[11] = Cytotoxicity against human PBMC cells assessed as cell viability at 1 uM incubated for 2 days by MTT assay relative to control; type: toxicity, cell-based; details: time 2 day, read-out: Activity
[12] = target: T2, NAD-dependent protein deacetylase sirtuin-2 (Homo sapiens) (UniProt Q8IXJ6); experiment: Inhibition of SIRT2 in human MCF7 cells assessed as induction of eIF5A acetylation incubated for 24 hrs by immunoblotting analysis; type: cell-based; details: dose 2-10 µM
T2 sequence (whole entry): T1 sequence (Q8IXJ6 whole entry)

[13] = tested on: DNA; experiment: Induction of DNA (unknown origin) cleavage; type: nucleic-acid assay
[14] = Cytotoxicity against human PBMC cells assessed as cell viability incubated for 2 days by MTT assay; type: toxicity, cell-based

Row | Compound | TGI [1] [nM] | IC50 [2] [nM] | GI50 [3] [nM] | LC50 (50% net cell kill) [4] [nM] | also measured
1 | CN(C)c1ccnc(CNCCCSC(c2ccccc2)(c2ccccc2)c2ccccc2)c1 | 3190 | 26100 | 1550 |  | 
2 | CN(C)c1ccnc(CNCCSC2(c3ccc(C(F)(F)F)cc3)c3ccccc3CCc3ccccc32)c1 | 370 | 49600 | 180 | ≥ 4770 | 
3 | CN(C)c1ccnc(CNCCSC2(c3ccccc3)c3ccccc3CCc3ccccc32)c1 | ≥ 2930 | 10600 | 1510 |  | 
4 | CN(C)c1ccnc(CNCCSC2(c3ccc(C(F)(F)F)cc3)c3ccccc3C=Cc3ccccc32)c1 | 4390 | > 50000 | 610 | ≥ 10000 | 
5 | COc1ccc(C2(SCCNCc3cc(N(C)C)ccn3)c3ccccc3C=Cc3ccccc32)cc1 | ≥ 70 | 5630 | 40 | ≥ 720 | selectivity ratio [5]: 25; Activity [6]: 26.7%; Activity [7]: 29.4%; Activity [8]: 46.5%; viability at 48 h, 10 µM [9]: 16.2%; selectivity ratio [10]: 2.2; viability at 48 h, 1 µM [11]: 84.9%; inhibition [12]: Dose-Dependent Effect; Activity [13]: inactive; IC50 at 2 days [14]: > 1000 nM
6 | COc1ccc(C2(SCCNCc3cc(N(C)C)ccn3)c3ccccc3CCc3ccccc32)cc1 | 440 | 8630 | 190 |  | 
7 | CCN(CC)c1ccnc(CNCCSC(c2ccccc2)(c2ccccc2)c2ccc(C)cc2)c1 | 2850 | 27300 | 1380 | ≥ 5590 | 
8 | Cc1ccc(C(SCCNCc2cc(N(C)C)ccn2)(c2ccccc2)c2ccccc2)cc1 | 1570 | 9910 | 370 | ≥ 4650 | 
9 | COc1ccc(C(SCCNCc2cc(N(C)C)ccn2)(c2ccccc2)c2ccccc2)cc1 | ≥ 480 | 12400 | 210 | ≥ 1820 | 
10 | CCN(CC)c1ccnc(CNC(Cc2cn(C(c3ccccc3)(c3ccccc3)c3ccccc3)cn2)C(=O)OC)c1 (centres undefined) |  | 7610 |  |  | 
11 | CCN(CC)c1ccnc(CNCCc2cn(C(c3ccccc3)(c3ccccc3)c3ccccc3)cn2)c1 | ≥ 3200 | 15400 | 1030 |  | 
12 | CN(C)c1ccnc(CNCCc2cn(C(c3ccccc3)(c3ccccc3)c3ccccc3)cn2)c1 | 1190 | 8620 | 260 |  | 
13 | CCN(CC)c1ccnc(CNCCSC(c2ccccc2)(c2ccccc2)c2ccc(OC)cc2)c1 | 3060 | 14200 | 1300 | ≥ 5590 | 
14 | CN(C)c1ccnc(CNCCSC2(c3ccccc3)c3ccccc3C=Cc3ccccc32)c1 | ≥ 500 | 12000 | 220 | ≥ 2170 | 
15 | CN(C)c1ccnc(CNCCSC2c3ccccc3C=Cc3ccccc32)c1 |  | > 50000 |  |  | 
